Laboratory results published in patent US11814376B2, “Hepatitis b core protein modulators” (Assembly Biosciences, Inc., priority 2015, dated 2023).

Key:
[1] = system: HBV viral load in AD38 cells; test: Viral load production in AD38 cells, quantitative PCR of the core sequence in supernatant; type: cell-based; conditions: 10 μM compound, 6 days at 37° C., supernatant qPCR, relative to DMSO control; for activity at 10 µM: Hepatitis B virus, 144 h, read-out: AD38 Viral Load (%) (VL with cmpd/VL in DMSO control) at 10 μM
Experimental: (§1) Example 2: Assay Measuring Activity of Compounds on Viral Production in and on Viability of AD38 Cells
(§2) AD38 cells were then re-suspended with 10 mL of Treatment Medium and counted. Wells of a collagen coated 96-well NUNC microtiter plate were seeded at 50,000/well in 180 μL of Treatment Medium, and 20 μL of in treatment media with either 10% DMSO (Control) or a 10× solution of compound in 10% DMSO was added. Plates were incubated for 6 days at 37° C.
Viral load production was assayed by quantitative PCR of the core sequence. […] The PCR mixture was incubated at 45° C. for 5 minutes, then 95° C. for 10 min, followed by 40 cycles of 10 seconds at 95° C. and 20 seconds at 60° C. Viral load was quantitated against known standards by using ViiA™ 7 Software. Viral load in the supernatant from wells with treated cells were compared against viral load in supernatant from DMSO control wells (>3 per plate).

[2] = system: AD38 cells; test: Viability of AD38 cells (Promega CellTiter-Glo); type: cell-based; conditions: 10 μM compound, 6 days, CellTiter-Glo luminescence normalized to DMSO control (100%)
Experimental: as §1, §2
At the end of compound treatment period cell viability was assessed using a Promega CellTiter-Glo protocol. All supernatant was removed the previously treated 96-well microtiter plate, and 50 μL Tetracycline-free treatment medium (DMEM/F12 (1:1), 1× Pen/step (cat #: 30-002-CL, Mediatech, Inc), with 2% FBS, Tet-system approved (cat #: 631106, Clontech), and 1% DMSO was added back to each well. Another 50 μL of CellTiter-Glo reagent solution (Promega, G7573) was then added at room temperature and the contents mixed for 2 minutes on an orbital shaker to induce cell lysis. This was followed by incubation at room temperature for 10 minutes to stabilize the luminescent signal. The luminescence was recorded for 0.2 seconds per well on a Tecan multimode plate reader (Infinite M1000 pro). The luminescent signal from each well was normalized against that of untreated (DMSO) control wells. All results were reported percent viability (with controls being 100%).

Compound	activity at 10 µM [1] [%]	AD38 Viability Normalized Result (cmpd/DMSO %) at 10 μM [2] [%]	AD38 Viral Load (%) (VL with cmpd/VL in DMSO control) at 10 μM [1]
O=C(NCc1cnc(-c2ccc(OCC3CCNCC3)cc2)s1)c1ccc2c(c1)NC(=O)c1ccccc1S2(=O)=O [compound 11137, 11-oxo-N-((2-(4-(piperidin-4-ylmethoxy)phenyl)thiazol-5-yl)methyl)-10, 11-dihydrodibenzo [b, f] [1, 4] thiazepine-8-carboxamide 5,5-dioxide]	3.6	96	–
Nc1ncc(-c2ncc(CNC(=O)c3ccc4c(c3)NC(=O)c3ccccc3O4)s2)cn1 [compound 1710]	39.9	96	–
Cc1c(C(=O)NCc2cnc(-c3ccc(C#N)cc3)s2)ccc2c1NC(=O)c1ccccc1S2(=O)=O [compound 1877]	0.2	96	–
COC(=O)c1ccc(-c2ncc(CNC(=O)c3ccc4c(c3)NC(=O)c3ccccc3S4)s2)cc1 [1599-A, methyl 4-(5-((11-oxo-10, 11-dihydrodibenzo [b, f] [1, 4]thiazepine-8-carboxamido)methyl)thiazol-2-yl) benzoate]	50.9	98	–
CNC(=O)c1ccc(-c2ncc(CNC(=O)c3ccc4c(c3)NC(=O)c3ccccc3S4(=O)=O)s2)cc1 [compound 1943]	1.9	98	–
CS(=O)(=O)c1ccc(-c2ncc(CNC(=O)c3ccc4c(c3)NC(=O)c3ccccc3S4(=O)=O)s2)cc1 [compound 1855]	2.5	102	–
CN(C)CCOc1ncc(CN(C)C(=O)c2ccc3c(c2)NC(=O)c2ccccc2O3)s1 [compound 1686, N-((2-(2-(dimethylamino)ethoxy)thiazol-5-yl)methyl)-N-methyl-11-oxo-10, 11-dihydrodibenzo [b, f] [1, 4] oxazepine-8-carboxamide]	58.4	102	–
CC(CCN(C)C)Oc1ccc(-c2ncc(CNC(=O)c3ccc4c(c3)NC(=O)c3ccccc3S4(=O)=O)s2)cc1 (stereo not shown) [compound 11080]	1.4	84	–
O=C(NCc1cnc(-c2ccc(OCCCN3CCC3)cc2)s1)c1ccc2c(c1)NC(=O)c1ccccc1S2(=O)=O [compound 11105]	1.6	95	–
Nc1ccc(-c2ncc(CNC(=O)c3ccc4c(c3)NC(=O)c3ccccc3S4(=O)=O)s2)nc1 [compound 1886, N-((2-(5-aminopyridin-2-yl)thiazol-5-yl)methyl)-11-oxo-10, 11-dihydrodibenzo [b, f] [1, 4] thiazepine-8-carboxamide 5,5-dioxide]	1.5	106	–
O=C(NCc1cnc(-c2cnc(O)nc2)s1)c1ccc2c(c1)NC(=O)c1ccccc1S2(=O)=O [compound 1671, N-((2-(2-hydroxypyrimidin-5-yl)thiazol-5-yl)methyl)-11-oxo-10, 11-dihydrodibenzo [b, f] [1, 4] thiazepine-8-carboxamide 5,5-dioxide]	18.2	100	–
O=C1Cc2cc(-c3ncc(CNC(=O)c4ccc5c(c4)NC(=O)c4ccccc4O5)s3)ccc2N1 [compound 1833]	67.4	102	–
O=C(NCc1cnc(-c2ccc(O)cc2F)s1)c1ccc2c(c1)NC(=O)c1ccccc1S2(=O)=O [compound 1670]	0.9	102	–
Cc1ncc(CNC(=O)c2ccc3c(c2)NC(=O)c2ccccc2[S+]3[O-])s1 (stereo not shown) [compound 1526]	0.8	94	–
CN(C)CCCOc1ncc(CNC(=O)c2ccc3c(c2)NC(=O)c2ccccc2O3)s1 [compound 1691, N-((2-(3-(dimethylamino)propoxy)thiazol-5-yl)methyl)-11-oxo-10, 11-dihydrodibenzo [b, f] [1, 4] oxazepine-8-carboxamide]	77.1	89	–
CN1c2ccc(C(=O)NCc3cnc(-c4ccc(C#N)cc4)s3)cc2NC(=O)c2ccccc21 [compound 1974]	15.3	103	–

Compound	activity at 10 µM [1] [%]	AD38 Viability Normalized Result (cmpd/DMSO %) at 10 μM [2] [%]	AD38 Viral Load (%) (VL with cmpd/VL in DMSO control) at 10 μM [1]
O=C(NCc1cnc(-c2ccc(O)c(Cl)c2)s1)c1ccc2c(c1)NC(=O)c1ccccc1O2 [compound 1702]	5.3	102	–
Cc1cc2c(cc1C(=O)NCc1cnc(C(F)(F)F)s1)NC(=O)c1ccccc1S2(=O)=O [compound 1910]	19	94	–
CCOC(=O)c1cnn(-c2ncc(CNC(=O)c3ccc4c(c3)NC(=O)c3ccccc3S4(=O)=O)s2)c1 [compound 11116]	0.9	97	–
CCCN1c2ccc(C(=O)NCc3cnc(C(F)(F)F)s3)cc2NC(=O)c2ccccc21 [compound 1916]	15.5	103	–
O=C(NCc1cnc(C(F)(F)F)s1)c1ccc2c(c1)NC(=O)c1ccccc1N2CCO [compound 11078]	45.7	96	–
NS(=O)(=O)c1ccc(-c2ncc(CNC(=O)c3ccc4c(c3)NC(=O)c3ccccc3O4)s2)cc1 [compound 1862]	19.9	107	–
CN(C)CCCOc1ccc(-c2ncc(CNC(=O)c3ccc4c(c3Cl)NC(=O)c3ccccc3S4(=O)=O)s2)cc1 [C51-01]	0.4	99	–
O=C(NCc1cnc(-c2ncco2)s1)c1ccc2c(c1)NC(=O)c1ccccc1S2(=O)=O [compound 1958]	1.5	91	–
O=C1Nc2c(ccc(C(=O)NCc3cnc(-n4cccn4)s3)c2Cl)S(=O)(=O)c2ccccc21 [C51-02]	0.2	98	–
O=C(NCc1cnc(-c2cc(F)c(O)c(F)c2)s1)c1ccc2c(c1)NC(=O)c1ccccc1S2(=O)=O [compound 1665]	2.7	90	–
COc1ncc(-c2ncc(CNC(=O)c3ccc4c(c3)NC(=O)c3ccccc3S4(=O)=O)s2)cn1 [1671-A, N-((2-(2-methoxypyrimidin-5-yl)thiazol-5-yl)methyl)-11-oxo-10, 11-dihydrodibenzo [b, f] [1, 4] thiazepine-8-carboxamide 5,5-dioxide]	0.7	111	–
O=C(NCc1cnc(-c2ccc(C#CCCN3CCOCC3)cc2)s1)c1ccc2c(c1)NC(=O)c1ccccc1S2(=O)=O [compound 11061, N-((2-(4-(4-morpholinobut-1-yn-1-yl)phenyl)thiazol-5-yl)methyl)-11-oxo-10, 11-dihydrodibenzo [b, f] [1, 4] thiazepine-8-carboxamide 5,5-dioxide]	0.9	95	–
O=C(NCc1cnc(-c2cscn2)s1)c1ccc2c(c1)NC(=O)c1ccccc1S2(=O)=O [compound 11049]	0.8	89	–
Cl.NCCNC(=O)c1ccc(-c2ncc(CNC(=O)c3ccc4c(c3)NC(=O)c3ccccc3S4(=O)=O)s2)cc1 [compound 11017, N-((2-(4-((2-aminoethyl)carbamoyl)phenyl)thiazol-5-yl)methyl)-11-oxo-10, 11-dihydrodibenzo [b, f] [1, 4] thiazepine-8-carboxamide 5,5-dioxide hydrochloride]	21	86	–
NC(=O)c1ccc(-c2ncc(CNC(=O)c3ccc4c(c3)NC(=O)c3ccccc3S4(=O)=O)s2)cc1 [compound 1764, N-((2-(4-carbamoylphenyl)thiazol-5-yl)methyl)-11-oxo-10, 11 dihydrodibenzo [b, f] [1, 4] thiazepine-8-carboxamide 5,5-dioxide]	1.1	107	–
CC(C)(C)OC(=O)N1CCN(C(=O)c2ccc(-c3ncc(CNC(=O)c4ccc5c(c4)NC(=O)c4ccccc4S5(=O)=O)s3)cc2)CC1 [11016-A, tert-butyl 4-(4-(5-((5,5-dioxido-11-oxo-10, 11-dihydrodibenzo [b, f] [1, 4]thiazepine-8-carboxamido)methyl)thiazol-2-yl)benzoyl) piperazine-1-carboxylate]	–	103	6.7
